One test concerns Enterobacter asburiae. Description: Antibacterial activity against Enterobacter asburiae KRICT3 at 1.6 mg/l after 24 hr. Type of test: functional, organism-based.
Another test has as its system Serratia marcescens. Description: Antibacterial activity against Serratia marcescens subsp. marcescens KRICT4 at 1.6 mg/l after 24 hr. It counts as functional, organism-based.
For test [1], the system named is Bursaphelenchus xylophilus. Description: Nematicidal activity against Bursaphelenchus xylophilus in pot-grown three-year-old trees of Pinus densiflora assessed as reduction of disease incidence at 2% treated 3 months before inoculation measured after 9 months by measuring dead trees relative to control. Type of test: functional. Also noted: scale not given: the % may be the effect or the level left.

In test [2] the test system is Bursaphelenchus xylophilus. The test is described as follows: Nematicidal activity against Bursaphelenchus xylophilus in pot-grown three-year-old trees of Pinus densiflora assessed as reduction of disease incidence at 2% treated 3 months before inoculation measured after 9 months by measuring dead trees. Also noted: scale not given: the % may be the effect or the level left. Type of test: functional.

Test [3] relates to Bursaphelenchus xylophilus. The test is described as follows: Nematicidal activity against Bursaphelenchus xylophilus assessed as mortality at 0.34 mg/l after 48 hr. Type of test: functional.
Test [4] relates to Bursaphelenchus xylophilus. The test is described as follows: Nematicidal activity against Bursaphelenchus xylophilus in pot-grown three-year-old trees of Pinus densiflora assessed as reduction of disease incidence at 3.6 mg/seedlings treated 7 days before inoculation measured after 1 month by measuring dead seedling under greenhouse condition relative to control. Type of test: functional. Also noted: scale not given: the % may be the effect or the level left.

Test [5] concerns Bursaphelenchus xylophilus. Description: Nematicidal activity against Bursaphelenchus xylophilus in pot-grown three-year-old trees of Pinus densiflora assessed as reduction of disease incidence at 3.6 mg/seedlings treated 7 days before inoculation measured after 1 month by measuring dead seedling under greenhouse condition. Also noted: scale not given: the % may be the effect or the level left. Type of test: functional.

Test [6] deals with Bursaphelenchus xylophilus. Description: Nematicidal activity against Bursaphelenchus xylophilus in pot-grown three-year-old trees of Pinus densiflora assessed as reduction of disease incidence at 10% treated 3 months before inoculation measured after 9 months by measuring dead trees relative to control. It counts as functional. Also noted: scale not given: the % may be the effect or the level left.

The test system of test [7] is Bursaphelenchus xylophilus. Description: Nematicidal activity against Bursaphelenchus xylophilus in pot-grown three-year-old trees of Pinus densiflora assessed as reduction of disease incidence at 10% treated 3 months before inoculation measured after 9 months by measuring dead trees. Also noted: scale not given: the % may be the effect or the level left. It counts as functional.

Test [8] deals with Bursaphelenchus xylophilus. The test is described as follows: Nematicidal activity against Bursaphelenchus xylophilus assessed as mortality at 10 mg/l after 48 hr. It counts as functional.
Another test deals with Ewingella americana. The test is described as follows: Antibacterial activity against Ewingella americana KRICT5 at 1.6 mg/l after 24 hr. Type of test: functional, organism-based.
In test [9] the test system is Peribacillus frigoritolerans. Description: Antibacterial activity against [Brevibacterium] frigoritolerans KRICT2 at 1.6 mg/l after 24 hr. It counts as functional, organism-based.
The subject of test [10] is Bursaphelenchus xylophilus. The test is described as follows: Nematicidal activity against Bursaphelenchus xylophilus in pot-grown three-year-old trees of Pinus densiflora assessed as reduction of disease incidence at 30 mg/seedlings treated 7 days before inoculation measured after 1 month by measuring dead seedling under greenhouse condition relative to control. It counts as functional. Also noted: scale not given: the % may be the effect or the level left.

Test [11] concerns Bursaphelenchus xylophilus. Description: Nematicidal activity against Bursaphelenchus xylophilus in pot-grown three-year-old trees of Pinus densiflora assessed as reduction of disease incidence at 10 mg/seedlings treated 7 days before inoculation measured after 1 month by measuring dead seedling under greenhouse condition relative to control. Type of test: functional. Also noted: scale not given: the % may be the effect or the level left.

Test [12] relates to Bursaphelenchus xylophilus. The test is described as follows: Nematicidal activity against Bursaphelenchus xylophilus in pot-grown three-year-old trees of Pinus densiflora assessed as reduction of disease incidence at 3 mg/seedlings treated 7 days before inoculation measured after 1 month by measuring dead seedling under greenhouse condition relative to control. Also noted: scale not given: the % may be the effect or the level left. Type of test: functional.

Test [13] concerns Bursaphelenchus xylophilus. Description: Nematicidal activity against Bursaphelenchus xylophilus in pot-grown three-year-old trees of Pinus densiflora assessed as reduction of disease incidence at 30 mg/seedlings treated 7 days before inoculation measured after 1 month by measuring dead seedling under greenhouse condition. It counts as functional. Also noted: scale not given: the % may be the effect or the level left.

For test [14], the system named is Bursaphelenchus xylophilus. Description: Nematicidal activity against Bursaphelenchus xylophilus in pot-grown three-year-old trees of Pinus densiflora assessed as reduction of disease incidence at 10 mg/seedlings treated 7 days before inoculation measured after 1 month by measuring dead seedling under greenhouse condition. It counts as functional. Also noted: scale not given: the % may be the effect or the level left.

Test [15] has as its system Bursaphelenchus xylophilus. The test is described as follows: Nematicidal activity against Bursaphelenchus xylophilus in pot-grown three-year-old trees of Pinus densiflora assessed as reduction of disease incidence at 3 mg/seedlings treated 7 days before inoculation measured after 1 month by measuring dead seedling under greenhouse condition. Type of test: functional. Also noted: scale not given: the % may be the effect or the level left.

Activity calls are given as the source filed them. No cut-off for these calls is given here.

The values that follow come from ChEMBL document CHEMBL3045013, “Suppression of pine wilt disease by an antibacterial agent, oxolinic acid” (2010).

Regarding `CN(C)[C@@H]1C(O)=C(C(N)=O)C(=O)[C@@]2(O)C(O)=C3C(=O)c4c(O)cccc4[C@@](C)(O)[C@H]3[C@H](O)[C@@H]12`, the outcome with Enterobacter asburiae and in the test on Serratia marcescens was Active.

As for `CC[C@H](C)[C@H]1O[C@]2(C=C[C@@H]1C)C[C@@H]1C[C@@H](C/C=C(\C)[C@@H](O[C@H]3C[C@H](OC)[C@@H](O[C@H]4C[C@H](OC)[C@@H](O)[C@H](C)O4)[C@H](C)O3)[C@@H](C)/C=C/C=C3\CO[C@@H]4[C@H](O)C(C)=C[C@@H](C(=O)O1)[C@]34O)O2.CO[C@H]1C[C@H](O[C@H]2[C@H](C)O[C@@H](O[C@@H]3/C(C)=C/C[C@@H]4C[C@@H](C[C@]5(C=C[C@H](C)[C@@H](C(C)C)O5)O4)OC(=O)[C@@H]4C=C(C)[C@@H](O)[C@H]5OC/C(=C\C=C\[C@@H]3C)[C@]54O)C[C@@H]2OC)O[C@@H](C)[C@@H]1O` [ABAMECTIN], the Activity in test [1] came to 93%; in [2], 6.7%; in test [3] it was 90%; in [4], 71%; in [5], 20%.

As for `CCn1cc(C(=O)O)c(=O)c2cc3c(cc21)OCO3` [OXOLINIC ACID], the Activity is listed as 74% in test [6]; 23.3% in [7]; 22% in [8]; 57% in [10]; 57% in [11]; 71% in test [12]. Besides, the figures for the Activity in test [13], in [14] and in test [15] were 30%, 30% and 20%, respectively. The outcome (with Serratia marcescens; in the test with Ewingella americana; in [9]) was Active.
